What was measured:
[1] = system: C57Bl6/J mice challenged with an intracerebroventricular injection of Aβ1-42 oligomers (AβO); experiment: Morris water maze (learning and long-term memory) in mice icv injected with AβO; type: in vivo, mouse
Method: (§1) Briefly, 144 C57Bl6/J male mice (3 months of age) were received and housed (4 to 5 per cage) in quarantine during 7 days, or longer. Test items were dosed per os (through oral gavage) once daily at different concentrations from day −1 to day +17.
From days +3 to days +14, learning capacities and long-term memory were investigated in the MWM assay.
(§2) The different experimental groups are defined as follow: • GROUP A (vehicle CTRL): po vehicle AND icv injection of vehicle (n=12) • GROUP B (APO CTRL): po vehicle AND icv injection of AβO (n=12) • GROUP C (positive CTRL): po Donepezil subchronic AND icv injection of AβO (n=12) • GROUP D (Donecopride CTRL): po Donecopride (9 mg/kg) AND icv injection of vehicle (n=12) • GROUP E (Flucopride CTRL): po Flucopride (9 mg/kg) AND icv injection of vehicle (n=12) • GROUP F (Donecopride Treated): po Donecopride (1 mg/kg) AND icv injection of AβO (n=12) • GROUP G (Donecopride Treated): po Donecopride (3 mg/kg) AND icv injection of AβO (n=12) • GROUP H (Donecopride Treated): po Donecopride (9 mg/kg) AND icv injection of AβO (n=12) • GROUP I (Fluocopride Treated): po Flucopride (1 mg/kg) AND icv injection of AβO (n=12) • GROUP J (Flucopride Treated): po Flucopride (3 mg/kg) AND icv injection of AβO (n=12) • GROUP K (Flucopride Treated): po Flucopride (9 mg/kg) AND icv injection of AβO (n=12) • GROUP L (positive CTRL): ip Donepezil acute on test days AND icv injection of AβO (n=12)
(§3) For per os dosing, Donecopride and Flucopride were formulated by solubilization in 0.9% NaCl. Compound dosing (total volume of 200 μL) started one day before induction of the disease (through icv injection of AβO) and was done for 19 consecutive days.
(§4) Single intra-cerebroventricular injection of 144 mice with vehicle or APO (max. 24 mice per day, all mice randomized): under anesthesia (ip injection of a mixture of ketamine/xylasine at a dose of 110 and 15 mg/kg, respectively) AβO (1 μL), or vehicle (1 μL) were injected into the right lateral ventricle. Injections were made using 10 μL Hamilton micro syringes fitted with a 26-gauge needle. The procedure was terminated by a subcutaneous injection of metacam (analgesia) at a dose of 5 mg/kg. Animals were then placed individually in their home-cage and the cage was placed in a heated cabinet until the animal has fully recovered. Animals were carefully monitored to control recovery after anesthesia.
(§5) Preparation of APO: Aβ1-42 was obtained from Bachem (ref H1368) (batch number: 1052301). The preparation of stable Aβ1-42 oligomers was performed as described in Garcia et al. (2010) J. Neurosci. 30:7516-7527. The oligomeric preparation (identified as Batch #2016-14) contained a mixture of stable trimers and tetramers of Aβ1-42, as well as monomeric forms of the peptide. All oligomer preparations used were previously characterized in terms of oligomer composition and in vitro neurotoxicity.
6 independent trials involving each 24 mice (i.e. 2 mice from each experimental group) for a total of 144 mice at day +4.
Detailed protocol: Habituation trials (visible platform)—The Morris water maze (MWM) was performed as described in Garcia et al. (2010) J. Neurosci. 30:7516-7527. The experimental apparatus consists of a circular water tank (diameter=100 cm; height=50 cm) containing water at 21° C. to a depth of 25 cm and rendered opaque to block the view past the water surface by adding an aqueous acrylic emulsion. A platform (diameter=10 cm) is used and placed at the midpoint of a quadrant. The pool is located in a test room, homogeneously illuminated at 100 lux. The swimming path of the animals is recorded using a video tracking system. Mice are brought to the experimental room for at least 30 min prior to testing, to enable acclimation to the experimental room conditions. Navigation to a visible platform is carried out before place-navigation, to evaluate visual and motor abilities of all mice. […]

[2] = system: C57Bl6/J mice challenged with an intracerebroventricular injection of Aβ1-42 oligomers (AβO); experiment: Novel Object Recognition assay in mice icv injected with AβO; type: in vivo, mouse; conditions: for mean discrimination index (NOR): day +16; for AβO-induced impairment of recognition memory (NOR): at all doses (1, 3, 9 mg/kg/day po)
Method: as §1
At days +15/+16, recognition memory was investigated using the Novel Object recognition test (NOR).
as §2, §3, §4, §5
6 independent trials involving each 24 mice (i.e. 2 mice from each experimental group) for a total of 144 mice at day +4—Behavioral tests were performed 1 h after dosing.
Detailed protocol: One day before the cognitive test (i.e. at day +15), mice are habituated during a 10 minutes' trial during which they are placed in an empty open field. The day of the cognitive test (i.e. day +16), animals are placed in the same open field and are allowed to explore freely two identical objects for a trial of five minutes (acquisition trial). Then the animals are returned in their home-cage for an inter-trial time of five minutes. During the retention trial, animals are allowed to explore two different objects: one familiar and one novel object. During this time, the experimenter, blind to the treatment, record the time the mouse is actively exploring each object. All trials are video recorded (Smart v3.0 software, Bioseb). A discrimination index is then generated: Discrimination index=(time exploring novel object−time exploring familiar object)/total exploration time. […]

[3] = ip acute on test day, icv AβO (Group L)
[4] = po sub-chronic, icv AβO (Group C)
[5] = 3 mg/kg/day po, icv AβO, day 5 of training
[6] = 9 mg/kg/day po, icv vehicle, day 5 of training
[7] = at all doses (1, 3, 9 mg/kg/day po), icv AβO

Row | SMILES | time spent in target vs opposite quadrant (MWM probe trial) ([1]; icv AβO) | mean crossing number (MWM probe trial) ([1]; 3 mg/kg/day po, icv AβO) | mean escape latency (MWM learning trials) [1, 5] | mean crossing number (MWM probe trial) ([1]; 9 mg/kg/day po, icv vehicle) | mean latency to target (MWM probe trial) ([1]; 9 mg/kg/day po, icv vehicle) | mean escape latency (MWM learning trials) [1, 6] | AβO-induced impairment of long-term memory evaluated using the number of crossings [1, 7] | mean discrimination index (NOR) ([2]; 9 mg/kg/day po, icv vehicle) | AβO-induced impairment of recognition memory (NOR) ([2]; icv AβO) | other results
1 | COc1cc2c(cc1OC)C(=O)C(CC1CCN(Cc3ccccc3)CC1)C2 (centres unmarked) [Donepezil, reference compound] | failed to improve | – | – | – | – | – | – | – | – | mean crossing number (MWM probe trial) [1, 3]: 3.8±0.4; mean latency to target (MWM probe trial) [1, 3]: 13.3 ± 2.3 s; mean escape latency (MWM learning trials) ([1]; ip acute on test day, icv AβO (Group L), day 5 of training): 13.4 ± 1.5 s; mean crossing number (MWM probe trial) [1, 4]: 3.7±0.4; mean latency to target (MWM probe trial) [1, 4]: 14.6 ± 2.7 s; mean escape latency (MWM learning trials) ([1]; po sub-chronic, icv AβO (Group C), after five days of training (day 5)): 14.7 ± 1.9 s; mean discrimination index (NOR) [2, 3]: 0.30±0.07; mean discrimination index (NOR) [2, 4]: 0.29±0.09
2 | COc1cc(N)c(F)cc1C(=O)CCC1CCN(CC2CCCCC2)CC1 [Flucopride] | did not improve | 4.1±0.6 | 12.5 ± 1.1 s | 4.6±0.7 | 12.0 ± 2.1 s | 16.3 ± 2.0 s | inhibition | 0.36±0.06 | dose-dependent inhibition (bell-shaped curve) | mean escape latency (MWM learning trials) ([1]; 1 mg/kg/day po, icv AβO, day 5 of training): 13.1 ± 1.1 s; improvement of learning capacities (MWM learning trials) ([1]; 9 mg/kg/day po, icv AβO): had no effect; mean latency to target (MWM probe trial) ([1]; 9 mg/kg/day po, icv AβO): 10.7 ± 1.9 s; mean escape latency (MWM learning trials) ([1]; 9 mg/kg/day po, icv vehicle, day 4 of training): 14.2 ± 1.9 s; mean discrimination index (NOR) ([2]; 3 mg/kg/day po, icv AβO): 0.46±0.05
3 | COc1cc(N)c(Cl)cc1C(=O)CCC1CCN(CC2CCCCC2)CC1 [Donecopride] | did not improve | 5.1±0.6 | 12.7 ± 1.5 s | 4.6±0.5 | 7.2 ± 1.5 s | 13.0 ± 1.7 s | inhibition | 0.29±0.04 | dose-dependent inhibition | mean latency to target (MWM probe trial) ([1]; 1 mg/kg/day po, icv AβO): 9.3 ± 1.4 s; AβO-induced impairment of long-term memory evaluated using the latency to target [1, 7]: inhibition; mean discrimination index (NOR) ([2]; 9 mg/kg/day po, icv AβO): 0.43±0.06

— patent US20220031680A1, “Donecopride As Neuroprotective Agent In the Treatment of Neurodegenerative Diseases” (priority 2018, published 2022)
